In ChEMBL document CHEMBL1201862, “PubChem BioAssay data set” (2004):
The source made the active and inactive calls.

How the values were obtained:
[1] = molecular target: Luciferin 4-monooxygenase (Photinus pyralis, UniProt P08659); test: inhibition of purified Photinus pyralis luciferase – biochemical, luminescence, dose response (AID 1891)
[2] = Luminescence Cell-Based Dose Confirmation HTS to Identify Inhibitors of Platelet Dense Granule Release. [Related pubchem assays: 1663 (Primary HTS), 1678 (Summary of Project)]; assay type: functional
[3] = molecular target: T1, Rac GTPase-activating protein 1 (Homo sapiens, UniProt Q9H0H5); test: blockers of MgcRacGAP-driven Rac1 GTP hydrolysis – biochemical, ADP Hunter fluorescence, primary and confirmatory, confirmation (AID 624330); assay type: functional
T1 sequence (Q9H0H5 whole entry): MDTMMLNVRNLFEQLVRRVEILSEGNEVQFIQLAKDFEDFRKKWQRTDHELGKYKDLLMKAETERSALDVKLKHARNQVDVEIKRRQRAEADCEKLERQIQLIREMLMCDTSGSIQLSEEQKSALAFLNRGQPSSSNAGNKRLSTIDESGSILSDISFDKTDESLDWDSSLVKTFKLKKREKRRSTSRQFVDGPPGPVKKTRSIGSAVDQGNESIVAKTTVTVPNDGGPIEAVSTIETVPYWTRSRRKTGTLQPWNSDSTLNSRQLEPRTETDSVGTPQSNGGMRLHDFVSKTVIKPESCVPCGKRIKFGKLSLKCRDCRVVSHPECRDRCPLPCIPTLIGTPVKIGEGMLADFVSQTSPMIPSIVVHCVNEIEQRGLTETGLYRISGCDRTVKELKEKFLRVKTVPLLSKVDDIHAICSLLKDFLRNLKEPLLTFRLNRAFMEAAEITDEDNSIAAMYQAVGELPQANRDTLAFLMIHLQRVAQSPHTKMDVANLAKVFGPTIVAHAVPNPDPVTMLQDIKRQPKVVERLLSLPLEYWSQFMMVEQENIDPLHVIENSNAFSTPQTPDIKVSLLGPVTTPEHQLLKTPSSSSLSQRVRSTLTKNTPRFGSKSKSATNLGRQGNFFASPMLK

[4] = Luminescence Cell-Based Dose Retest to Confirm Inhibitors of Cancer Stem Cells. [Related pubchem assays (depositor defined):AID2717, AID2721]; assay type: functional; details: Homo sapiens
[5] = Trypanosoma cruzi growth suppression in host cells – NIH3T3 host cells, beta-gal luminescence, confirmation (AID 2044); assay type: functional, cell-based;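 also: intracellular parasites grown in NIH/3T3 mouse fibroblasts as host cells; luminescent beta-galactosidase reporter signal from transgenic T. cruzi replicating inside host cells; inhibitors lower the luminescence signal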
[6] = NIH3T3 cell viability loss – ATP luminescence, mouse fibroblasts, counter-screen, dose response (AID 2010); assay type: functional, cell-based;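 also: cells exposed to compound for about 90 hours before reading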
Cytochrome P450 3A4 = Cytochrome P450 3A4 (Homo sapiens, UniProt P08684);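 also: CYP3A4 tested as one member of a cytochrome P450 panel screen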
Cytochrome P450 3A4, sequence (P08684 whole entry): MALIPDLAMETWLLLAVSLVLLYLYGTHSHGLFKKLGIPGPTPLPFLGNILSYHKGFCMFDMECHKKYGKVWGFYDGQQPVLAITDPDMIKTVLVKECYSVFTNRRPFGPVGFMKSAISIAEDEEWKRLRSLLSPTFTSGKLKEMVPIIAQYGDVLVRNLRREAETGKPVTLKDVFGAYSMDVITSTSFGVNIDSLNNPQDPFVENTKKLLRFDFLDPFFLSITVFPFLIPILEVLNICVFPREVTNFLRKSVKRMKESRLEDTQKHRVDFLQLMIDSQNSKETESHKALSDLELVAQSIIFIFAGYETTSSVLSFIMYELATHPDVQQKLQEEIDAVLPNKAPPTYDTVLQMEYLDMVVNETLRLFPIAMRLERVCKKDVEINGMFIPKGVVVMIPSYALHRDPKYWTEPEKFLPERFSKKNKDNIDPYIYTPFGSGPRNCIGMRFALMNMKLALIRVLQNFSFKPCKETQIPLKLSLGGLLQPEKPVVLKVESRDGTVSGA

Cytochrome P450 2C9 = Cytochrome P450 2C9 (Homo sapiens, UniProt P11712)
Cytochrome P450 2C9, sequence (P11712 whole entry): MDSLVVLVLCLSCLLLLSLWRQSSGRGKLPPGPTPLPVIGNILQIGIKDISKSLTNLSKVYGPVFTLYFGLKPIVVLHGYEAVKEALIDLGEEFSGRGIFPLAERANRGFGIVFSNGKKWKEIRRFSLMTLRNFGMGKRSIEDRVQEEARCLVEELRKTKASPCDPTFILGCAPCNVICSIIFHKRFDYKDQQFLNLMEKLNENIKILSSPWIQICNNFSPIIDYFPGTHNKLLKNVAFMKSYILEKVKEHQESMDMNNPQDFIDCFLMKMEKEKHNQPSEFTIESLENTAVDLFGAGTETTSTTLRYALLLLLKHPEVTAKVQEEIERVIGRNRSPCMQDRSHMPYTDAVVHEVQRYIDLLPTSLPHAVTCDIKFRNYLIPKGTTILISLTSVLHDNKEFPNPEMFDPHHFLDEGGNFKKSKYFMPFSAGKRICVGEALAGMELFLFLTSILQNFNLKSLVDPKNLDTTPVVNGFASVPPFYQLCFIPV

Cytochrome P450 2C19 = Cytochrome P450 2C19 (Homo sapiens, UniProt P33261); test: Cytochrome panel assay with activity outcomes. Panel member name: p450-cyp2c19 Compounds with AC50 equal or less than 10 uM are considered active; assay type: functional; details: read-out: AC50
Cytochrome P450 2C19, sequence (P33261 whole entry): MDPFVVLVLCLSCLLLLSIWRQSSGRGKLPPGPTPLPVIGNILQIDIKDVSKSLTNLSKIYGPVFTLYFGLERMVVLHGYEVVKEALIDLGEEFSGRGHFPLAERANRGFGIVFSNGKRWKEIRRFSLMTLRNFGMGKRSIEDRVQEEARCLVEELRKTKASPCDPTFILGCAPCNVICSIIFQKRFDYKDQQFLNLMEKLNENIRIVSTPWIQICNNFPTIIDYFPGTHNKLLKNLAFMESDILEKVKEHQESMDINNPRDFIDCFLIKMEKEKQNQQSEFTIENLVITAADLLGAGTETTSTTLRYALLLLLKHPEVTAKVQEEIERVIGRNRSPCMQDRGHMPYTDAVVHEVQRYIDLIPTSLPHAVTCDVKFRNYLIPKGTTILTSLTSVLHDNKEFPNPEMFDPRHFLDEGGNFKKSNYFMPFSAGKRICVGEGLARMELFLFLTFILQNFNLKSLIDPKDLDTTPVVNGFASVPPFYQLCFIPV

INS1 = test: INS-1E survival protection against cytokine death – cell-based, luminescence, retest, dose response (AID 449756); assay type: functional; details: Rattus norvegicus;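 also: cell death triggered by IL-1 beta plus TNF-alpha plus IFN-gamma mixture; protective hits raise ATP signal compared with cytokine alone wells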
[7] = molecular target: T2, Heat shock factor protein 1 (Mus musculus, UniProt P38532); test: decrease of HSF1-responsive luciferase luminescence – cell-based, NIH3T3, dose retest, confirmation (AID 2382); assay type: functional;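 also: NIH3T3 fibroblasts with HSF1-driven luciferase reporter stressed by proteasome inhibitor MG132; luminescence from HSF1-driven luciferase expression after 8 hours of MG132 stress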
T2 sequence (P38532 whole entry): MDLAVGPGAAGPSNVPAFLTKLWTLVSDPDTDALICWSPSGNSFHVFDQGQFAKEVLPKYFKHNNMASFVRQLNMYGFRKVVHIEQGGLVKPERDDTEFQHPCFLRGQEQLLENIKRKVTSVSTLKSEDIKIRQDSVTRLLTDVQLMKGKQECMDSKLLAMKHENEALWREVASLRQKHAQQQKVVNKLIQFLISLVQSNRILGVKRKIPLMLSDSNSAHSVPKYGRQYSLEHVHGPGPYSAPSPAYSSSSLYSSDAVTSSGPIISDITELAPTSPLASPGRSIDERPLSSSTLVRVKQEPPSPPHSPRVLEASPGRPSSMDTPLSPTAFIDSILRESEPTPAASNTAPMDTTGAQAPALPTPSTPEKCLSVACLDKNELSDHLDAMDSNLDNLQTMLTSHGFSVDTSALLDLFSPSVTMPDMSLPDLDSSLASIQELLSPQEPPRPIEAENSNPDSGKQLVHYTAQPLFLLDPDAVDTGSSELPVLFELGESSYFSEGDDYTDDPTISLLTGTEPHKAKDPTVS

Streptokinase A = molecular target: T3, Streptokinase A (Streptococcus pyogenes serotype M1, UniProt P10520); test: viability-normalized secreted streptokinase activity reduction – plasminogen activation absorbance, OD405, dose response (AID 1914); assay type: functional, Streptococcus pyogenes M1 GAS;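 also: secreted streptokinase activity via plasminogen activation per viability signal from cell pellet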
T3 sequence (P10520 whole entry): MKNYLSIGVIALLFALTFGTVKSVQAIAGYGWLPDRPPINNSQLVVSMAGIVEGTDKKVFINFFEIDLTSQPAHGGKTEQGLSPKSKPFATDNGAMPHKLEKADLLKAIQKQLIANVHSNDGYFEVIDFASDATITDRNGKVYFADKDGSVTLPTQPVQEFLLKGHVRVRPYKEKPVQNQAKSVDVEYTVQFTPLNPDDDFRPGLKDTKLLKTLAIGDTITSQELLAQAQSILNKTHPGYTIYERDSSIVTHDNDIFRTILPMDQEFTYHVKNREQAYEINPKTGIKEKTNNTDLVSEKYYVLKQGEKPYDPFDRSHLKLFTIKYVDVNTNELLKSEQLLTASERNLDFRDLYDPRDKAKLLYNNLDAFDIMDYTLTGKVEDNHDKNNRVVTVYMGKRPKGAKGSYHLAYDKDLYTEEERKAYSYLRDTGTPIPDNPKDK

Streptococcus = test: GAS UMAA2166 growth inhibition – luminescence, BacTiterGlo, counter-screen for streptokinase expression inhibitor project, dose response (AID 1915); assay type: functional, organism-based;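 also: potency for reduction of bacterial viability or growth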
[8] = system: Streptococcus sp. 'group A'; test: Streptococcus pyogenes SK(-)GAS viability under kanamycin – luminescence, BacTiterGlo, confirmation, counter-screen for streptokinase expression inhibitor project, dose response (AID 1900); assay type: functional, organism-based

Luciferin 4-monooxygenase, sequence (P08659 whole entry): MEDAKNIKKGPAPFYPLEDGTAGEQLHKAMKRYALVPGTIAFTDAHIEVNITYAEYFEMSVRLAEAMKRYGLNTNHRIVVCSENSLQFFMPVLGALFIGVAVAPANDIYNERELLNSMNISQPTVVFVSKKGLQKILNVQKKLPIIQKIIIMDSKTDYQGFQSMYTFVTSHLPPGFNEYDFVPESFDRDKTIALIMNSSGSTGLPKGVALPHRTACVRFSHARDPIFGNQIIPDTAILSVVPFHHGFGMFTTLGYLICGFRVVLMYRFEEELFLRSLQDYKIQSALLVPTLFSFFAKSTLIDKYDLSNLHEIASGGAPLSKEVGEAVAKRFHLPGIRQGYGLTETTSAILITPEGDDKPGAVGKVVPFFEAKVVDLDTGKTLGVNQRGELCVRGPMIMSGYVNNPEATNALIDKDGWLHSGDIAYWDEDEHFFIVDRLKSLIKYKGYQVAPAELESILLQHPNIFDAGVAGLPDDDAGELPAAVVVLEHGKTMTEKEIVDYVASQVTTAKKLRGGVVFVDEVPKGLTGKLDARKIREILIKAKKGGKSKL

SMILES: COc1ccc(CN2CCCC(C(=O)c3cccc(OC(C)C)c3)C2)cc1Cn1cccn1 (centres undefined)
- EC50 [1]: > 112 µM (not active)
- EC50 [2]: > 112 µM (not active)

SMILES: COCCNC(=O)COc1ccc(Nc2ccccc2)cc1
- IC50 [3]: 47.6 µM (active)

SMILES: CN(C(S)=Nc1ccc(SC(F)F)cc1)C(c1ccccc1)c1ccccc1
- AC50 [4]: 4.57 µM (active)

SMILES: CCCCn1c(N)c(N(Cc2ccccc2OC)C(=O)C(C)Oc2ccc(Cl)cc2)c(=O)[nH]c1=O (centres undefined)
- EC50 [1]: > 112 µM (not active)
- EC50 [2]: > 112 µM (not active)

SMILES: Cc1ccccc1-c1ccc(CN2CCN(C)C(CCO)C2)cc1 (centres undefined)
- EC50 [5]: 0.828 µM (active)
- EC50 [6]: 4.69 µM (active)
- AC50 [4]: 2.9 µM (active)

SMILES: O=[N+]([O-])c1ccc(N2CCC(=NOCc3ccc(Cl)cc3)CC2)cc1
- AC50 (Cytochrome P450 3A4): 35.5 µM (inconclusive)
- AC50 (Cytochrome P450 2C9): 14.1 µM (inconclusive)
- AC50 (Cytochrome P450 2C19): 4.47 µM (inconclusive)

SMILES: Cc1nn(CC(=O)Nc2cccnc2)c(C)c1[N+](=O)[O-]
- EC50 [1]: > 112 µM (not active)
- EC50 [2]: 7.26 µM (active)

SMILES: N=C(NOC(=O)c1ccc(Cl)cc1)c1[nH]ncc1Br
- EC50 [1]: 0.882 µM (active)
- EC50 [2]: 4.36 µM (active)

SMILES: C=C(Br)Cn1c(CCCC)nc2ccccc21
- AC50 [4]: 0.514 µM (active)

SMILES: O=C(O)/C=C/c1cccc(NC(=O)c2ccccc2)c1
- EC50 [1]: 4.49 µM (active)
- EC50 [2]: 17.4 µM (active)

SMILES: Cc1ccc(-c2nn(-c3ccccc3)cc2/C=C/C(=O)Nc2cccc(S(N)(=O)=O)c2)cc1
- AC50 (INS1): 3.29 µM (active)

SMILES: Cc1cccc(N2C(S)=C(C#N)C(=O)NC2c2cccs2)c1 (centres undefined)
- IC50 [3]: 110 µM (active)

SMILES: CCOC(=O)Nc1ccc2nc(Sc3ccc(Cl)cc3)sc2c1
- AC50 [4]: 1.53 µM (active)

SMILES: CS(=O)(=O)N1CCC2(CCCN(C(=O)Nc3cccc(F)c3)C2)CC1
- AC50 (Cytochrome P450 3A4): 20 µM (inconclusive)

SMILES: CC1CCN(CC(=O)Nc2ccc(S(=O)(=O)NC3CC3)cc2)CC1
- IC50 [3]: 179 µM (active)
- EC50 [7]: > 195 µM (not active)

SMILES: O=C(CC1(O)C(=O)N(Cc2ccccc2)c2ccccc21)c1ccncc1 (centres undefined)
- EC50 [1]: > 112 µM (not active)
- EC50 [2]: > 112 µM (not active)

SMILES: CC(=O)Nc1ccc(Nc2ccccc2)cc1
- IC50 [3]: 75.6 µM (active)

SMILES: O=C(COc1ccc2ccccc2c1)NNC(=O)Cc1cccc2ccccc12
- AC50 (Cytochrome P450 3A4): 14.1 µM (inconclusive)
- AC50 (Cytochrome P450 2C19): 0.398 µM (inconclusive)

SMILES: Cc1ccccc1CNc1ccc(C(CC(N)=O)NC(=O)c2ccccc2)cc1[N+](=O)[O-] (centres undefined)
- AC50 [4]: 3.49 µM (active)

SMILES: O=C(Cc1ccc(Cl)c(Cl)c1)Nc1ccc(SC(F)F)cc1
- AC50 [4]: 4.04 µM (active)

SMILES: CCO/C(O)=C1/C(C)=Nc2ncnn2C1c1cccnc1 (centres undefined)
- AC50 (Cytochrome P450 2C9): 25.1 µM (inconclusive)
- AC50 (Cytochrome P450 2C19): 22.4 µM (inconclusive)

SMILES: CC1(C)CC(=O)C(C(C#Cc2ccccc2)C2=C(O)CC(C)(C)CC2=O)=C(O)C1
- AC50 (Cytochrome P450 3A4): 31.6 µM (inconclusive)

SMILES: COCCn1c(=O)c(-c2cn(C)c3ccccc23)nc2cnc(OCc3ccccc3)nc21
- AC50 (Cytochrome P450 3A4): 7.94 µM (inconclusive)

SMILES: CN(C)CCOC(=O)CCc1ccccc1
- EC50 [1]: > 112 µM (not active)
- EC50 [2]: > 112 µM (not active)

SMILES: Cc1cc(C)c(-c2noc(C(=O)OC(C)(C)C)c2C(=O)OC(C)(C)C)c(C)c1
- AC50 (Cytochrome P450 2C9): 12.6 µM (inconclusive)
- EC50 (Streptokinase A): 11.5 µM (active)
- EC50 (Streptococcus): > 150 µM (not active)
- EC50 [8]: 10.4 µM (active)
- AC50 (Cytochrome P450 2C19): 11.2 µM (inconclusive)

SMILES: Cc1cc(NC(=S)NC(=O)CC(C)C)ccc1Br
- AC50 (Cytochrome P450 3A4): 20 µM (inconclusive)
- AC50 (Cytochrome P450 2C9): 0.0447 µM (inconclusive)

SMILES: OC(CNCC1COc2ccccc2O1)COCc1cccs1 (centres undefined)
- IC50 [3]: 76.9 µM (active)

SMILES: Cc1cc(C(F)(F)F)nn1CC(=O)Nc1cccnc1
- AC50 (Cytochrome P450 3A4): 25.1 µM (inconclusive)
- AC50 (Cytochrome P450 2C9): 39.8 µM (inconclusive)
- AC50 (Cytochrome P450 2C19): 22.4 µM (inconclusive)

SMILES: CC(OC(=O)CCNC1=NS(=O)(=O)c2ccccc21)C(=O)Nc1ccc(N(C)C)cc1 (centres undefined)
- IC50 [3]: 54.7 µM (active)

SMILES: Cc1ccsc1/C=N/Nc1nc2ccccc2[nH]1
- IC50 [3]: 71.6 µM (active)

SMILES: O=[N+]([O-])C(=C\Nc1ccccc1O)/C=N/c1ccccc1O
- IC50 [3]: 58.9 µM (active)

SMILES: C/C(=N\Nc1nc(C)cc(-c2ccccc2)n1)c1cccc(N)c1
- AC50 (INS1): 2.76 µM (active)

SMILES: O=C(N/N=C/c1ccc(OC2CSC2)cc1)c1ccccc1
- AC50 [4]: 2.49 µM (active)

SMILES: CC1(C)C(=O)N=C2C1=C(O)C(=O)c1ccccc12
- AC50 (Cytochrome P450 3A4): 31.6 µM (inconclusive)
- AC50 (Cytochrome P450 2C9): 25.1 µM (inconclusive)
- AC50 (Cytochrome P450 2C19): 31.6 µM (inconclusive)

SMILES: CCCCC[C@H](O)/C=C/[C@H]1[C@H](O)CC(=O)[C@@H]1CCCCCCC(=O)O [ALPROSTADIL]
- EC50 [1]: > 112 µM (not active)
- EC50 [2]: < 0.088 µM (active)
